Data published in the SangsterLogP compilation.

Key:
[1] = not given; remark: listed apart in the source
[2] = not given; remark: listed apart in the source
[3] = not given; remark: listed apart in the source
[4] = method code SF-RC,AS, from DOI: 10.1016/s0022-3565(25)22658-1, PMID: 3367302; conditions: pH 7.4
[5] = method code SF-HPLC, from DOI: 10.1021/js980008v, PMID: 9758683
[6] = not given; remark: listed apart in the source
[7] = not given; remark: listed apart in the source
[8] = not given; remark: listed apart in the source
[9] = method code SF-AS, from DOI: 10.1023/a:1021720128725
[10] = not given; remark: listed apart in the source
[11] = pH 2.0
[12] = not given; remark: listed apart in the source
[13] = method code SF-AS, from DOI: 10.2307/3574491, PMID: 940937; conditions: pH 7.4
[14] = method code SF-RC, from DOI: 10.1007/bf01870888, PMID: 7057454
[15] = not given; remark: listed apart in the source
[16] = not given; remark: listed apart in the source
[17] = method code SF-GLC, from DOI: 10.1080/00032718608066246; conditions: pH 7.0

## O=C(O)c1ccc(O)cc1O
other
  logP: 1.41

## Nc1c(Cl)c(Cl)nc(C(=O)O)c1Cl
[1]
  logP: 1

## Cc1ccccc1C(=N)c1ccccc1
[2]
  logP: 3.21

## CCNC(=O)[C@@H](C)OC(=O)Nc1ccccc1
[1]
  logP: 1

## CCOP(=S)(OCC)SCSP(=S)(OCC)OCC
[3]
  logP: 4

## [N-]=[N+]=N[C@H]1C[C@H](n2ccc(=O)[nH]c2=O)O[C@@H]1CO
[4]
  logD: -0.37

## CCC(=O)OCN1C(=O)NC(c2ccccc2)(c2ccccc2)C1=O
[5]
  logP: 3.34

## CN(C)C(=O)Nc1ccc(Oc2ccc(Cl)cc2)cc1
[1]
  logP: 3.7

## CCCC(C)C1(CC)C(=O)NC(=S)NC1=O (centres undefined)
[6]
  logP: 2.54

## Cc1c(C)c2c(c(C)c1O)CCC(C)(COc1ccc(CC3SC(=O)NC3=O)cc1)O2 (centres undefined)
[7]
  logP: 2.7

## CC(C)(C)c1cccc(C(C)(C)C)c1O
[8]
  logP: 4.92

## Nc1nc2c(nc(Br)n2COCCO)c(=O)[nH]1
[9]
  logP: -0.26

## Nc1c(Cl)cc(Cl)cc1Cl
[10]
  logP: 3.42

## C/C=C/C=C/C(=O)O
[11]
  logD: 1.64

## COc1ccc(/C=C/[N+](=O)[O-])cc1
[12]
  logP: 2.2

## Cc1ccc(C(=O)O)c(C2=NC(C)(C(C)C)C(=O)N2)c1 (centres undefined)
[3]
  logP: 1.54

## Cn1c(C=O)cnc1[N+](=O)[O-]
[13]
  logD: -0.1

## CO[C@H]1CCC[C@H]2C1=C(C(=O)OC(C)OC(=O)OC1CCCCC1)N1C(=O)[C@H]([C@@H](C)O)[C@@H]21 (some centres undefined)
[7]
  logP: 3

## NC(N)=O
[14]
  logP: -1.54

## COc1ccc(-c2cn3c(=O)c4ncn(COCCO)c4nc3[nH]2)cc1
[9]
  logP: 0.39

## COCC(O)Cn1c([N+](=O)[O-])cnc1C (centres undefined)
[13]
  logD: 0.04

## CC(=O)OCCOC(C)=O
[15]
  logP: 0.1

## Cc1c(F)c(F)c(COC(=O)[C@H]2[C@@H](/C=C(\Cl)C(F)(F)F)C2(C)C)c(F)c1F
[3]
  logP: 6.5

## CCOC(=O)Cn1c(CC)cnc1[N+](=O)[O-]
[13]
  logD: 0

## Cc1ccc(C(=N)c2ccc(C)cc2)cc1
[2]
  logP: 3.71

## CCCCCC
[16]
  logP: 3.9

## Cc1cccc(C)c1C(=N)c1ccccc1
[2]
  logP: 3.53

## CCN(CC)CCO
[15]
  logP: 0.31

## Cc1cnc([N+](=O)[O-])n1CCO
[13]
  logD: 0.18

## CC(C)(C(=O)O)C(=O)O
[15]
  logP: 0.26

## c1ccc2nc3ccccc3cc2c1
[17]
  logD: 3.32

## O=[N+]([O-])c1nccn1CCO
[13]
  logD: -0.51

## Nc1cccc(N)c1
[15]
  logP: 0

## COP(=S)(CN1C(=O)c2ccccc2C1=O)OC
[15]
  logP: 2.83
